We go through 4 molecules from PMC11254172 (International Journal for Parasitology: Drugs and Drug …, 2024).

By IC50 is commonly meant the concentration that gives 50% inhibition.

Molecules are shown by their SMILES. Read-outs that look alike come from different tables or passages of the source.

One test concerns T. gondii oocysts. Further details: method as in Müller et al., 2017b. The following applies: 50 mg/kg/day for 5 days; ref Müller et al., 2017b; cited from earlier work.
Another test has as its system N. caninum. The following applies: 50 mg/kg/day for 6 days; ref Winzer et al., 2015; cited from earlier work.
Another test deals with T. gondii. The following applies: cited from earlier work.
A further test concerns Nc-β-gal tachyzoites. Briefly: In vitro proliferation assay with N. caninum β-gal tachyzoites in HFF monolayers. The format is cell-based, Neospora caninum. The following applies: read at 72 h post-infection. Here is the method: (§1) N. caninum strain NcSpain-7 and the transgenic strain N. caninum Nc1 expressing β-galactosidase (Nc-β-gal) were grown and maintained in HFF ([Aguado-Martínez et al., 2016]). T. gondii ME49 and T. gondii β-gal tachyzoites (RH background, Tg-β-gal) were cultured as previously described ([Winzer et al., 2015]). T. gondii oocysts of the type II isolate T. gondii sheep Spain 1 (TgShSp1) were generated at the Complutense University of Madrid, Spain, and were stored at 4 °C ([Sánchez-Sánchez et al., 2019]).
(§2) The effects of the compound on HFF viability were assessed by resazurin reduction assay, following the protocols of previous studies ([Anghel et al., 2020]).

For test [1], the system named is N. caninum NcSpain-7 tachyzoites. The following applies: in vivo.
Description: A total of 57 BALB/c mice were used: 38 females and 19 males, all 8 weeks old. […] For the infection, NcSpain-7 tachyzoites were cultured in HFF at 37 °C/5% CO₂ and transferred to BALB/c fibroblasts to be grown under the same conditions for three days prior to infection. Parasites were then collected and counted, and each mouse was infected by subcutaneous injection with 10⁵ NcSpain-7 tachyzoites suspended in 100 μL PBS ([Arranz-Solís et al., 2015]). Infection took place on day 7 post-mating. Pregnant and non-pregnant mice were separated as described for the toxoplasmosis model and evaluated for clinical signs and mortality rates. Pregnant mice gave birth on days 20–23 post-mating. […]
Brains of adult mice and surviving pups were collected directly after sacrifice and parasitic load was quantified by real-time PCR specific for T. gondii ([Costa et al., 2000]) and N. caninum ([Müller et al., 2002]). […] DNA was extracted from all samples using the Nucleospin Kit (Macherey-Nagel, Oensingen, Switzerland) and QuantiFluor dsDNA System (Promega, Madison, Wi, USA) was used to determine the DNA concentration. […] Quantitative real-time PCR was performed using the Light Cycler® System (Roche, Basel, Switzerland). Parasite load was calculated by interpolation from a standard curve of DNA samples from 1000, 100 and 10 T. gondii or N. caninum tachyzoites included in each run. […]
The next test concerns Tg-β-gal tachyzoites. Kind of test: In vitro proliferation assay with T. gondii β-gal tachyzoites in HFF monolayers. The format is cell-based, Toxoplasma gondii. The conditions noted are these: read at 72 h post-infection. The method, then:
as §1, §2

`CCOc1ccc2cc(-c3nn(CC4CCN(C)CC4)c4ncnc(N)c34)ccc2c1` [BKI-1294]: in the test on T. gondii oocysts, the “Pups with detectable T. gondii DNA in their brain (%)” value is 7% and the “Pups with detectable T. gondii DNA in their brain (number)” value is 4 out of 55. The Pup survival rate in the test on N. caninum was 80%.
Turning to `N#CC(c1ccc(Cl)cc1)c1c(Cl)cc(-n2ncc(=O)[nH]c2=O)cc1Cl` (stereo not drawn) [diclazuril], the “Morphological effect on T. gondii” value in the test with T. gondii (ref Lindsay et al., 1995) is “formation of multinucleated forms”.
Take `CC(C)(CO)Cn1nc(-c2ccc3cc(OC4CC4)ccc3c2)c(C(N)=O)c1N` [BKI-1708]: the IC50 with Nc-β-gal tachyzoites (Neospora caninum, 72 h, read-out: IC50 Nc-β-gal Pre-infection, compound added concomitantly to infection of HFF) is 0.48 µM; with Nc-β-gal tachyzoites (Neospora caninum, read-out: IC50 Nc-β-gal Post-infection, compound added 3 h after infection of HFF) it was 0.964 µM; in the test with Nc-β-gal tachyzoites (read-out: IC50 Nc-β-gal Pre-infection, compound added concomitantly to infection of HFF), 0.481 µM; in the test with Tg-β-gal tachyzoites (Toxoplasma gondii, 72 h, read-out: IC50 Tg-β-gal Pre-infection, compound added concomitantly to infection of HFF), 0.12 µM; in the test with Tg-β-gal tachyzoites (Toxoplasma gondii, read-out: IC50 Tg-β-gal Post-infection, compound added 3 h after infection of HFF) it was 0.327 µM; in the test on Tg-β-gal tachyzoites (read-out: IC50 Tg-β-gal Pre-infection, compound added concomitantly to infection of HFF), 0.122 µM. Besides, the “Vertical transmission rate (%)” value in test [1] is listed as 38%.
For the molecule `CC(C)(C)n1nc(Cc2cccc3ccccc23)c2c(N)ncnc21` [1NM-PP1], in the test with T. gondii (ref Sugi et al., 2016), the “Morphological effect on T. gondii” value is “Multinucleated forms”.
